In US7718641B2, “Pyrrolo [3,4-H] isoquinoline compounds and methods for modulating gated ion channels” (Aros Pharma ApS, priority 2005, dated 2010):
pIC50: −log10 of the molar value.

Key:
hASIC1a [1] = target: T1, hASIC1a (Homo sapiens, UniProt P78348); test: Calcium-imaging (FLIPR, Fluo-4) of acid (MES)-induced calcium response in ASIC1a expressing HEK293 cells; type: cell-based; design: expressed in transfected cells; host or cells: HEK293; details: for inhibitory effect on acid-induced hASIC1a activity (dose-response curve): HEK293 transfected with hASIC1a, intracellular calcium, increasing concentrations; for pIC50: calcium mobilization assay, MES-induced calcium response, HEK293, n=3-7
T1 sequence (P78348 1-528): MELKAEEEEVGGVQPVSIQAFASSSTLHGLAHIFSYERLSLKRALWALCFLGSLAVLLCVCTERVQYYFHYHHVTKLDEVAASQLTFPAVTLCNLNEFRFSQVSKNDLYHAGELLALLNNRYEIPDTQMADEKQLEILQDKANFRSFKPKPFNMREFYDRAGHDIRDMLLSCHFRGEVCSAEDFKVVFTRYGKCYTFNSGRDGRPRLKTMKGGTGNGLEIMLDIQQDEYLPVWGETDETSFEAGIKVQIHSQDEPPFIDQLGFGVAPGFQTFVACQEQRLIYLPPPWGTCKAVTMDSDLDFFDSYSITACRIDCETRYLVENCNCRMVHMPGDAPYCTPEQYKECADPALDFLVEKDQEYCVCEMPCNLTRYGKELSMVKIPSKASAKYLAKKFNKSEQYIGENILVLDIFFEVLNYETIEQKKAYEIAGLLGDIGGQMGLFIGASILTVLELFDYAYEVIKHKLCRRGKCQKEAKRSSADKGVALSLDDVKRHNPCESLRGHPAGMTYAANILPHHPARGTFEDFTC
Method: ASIC1a expressing HEK293 cells are grown in culture medium (DMEM with 10% FBS), in polystyrene culture flasks ([…]) at 37° C. in a humidified atmosphere of 5% CO2. Confluency of cells should be 80-90% on day of plating. Cells are rinsed with 10 ml of PBS and re-suspended by addition of culture medium and trituration with a 25 ml pipette.
The cells are seeded at a density of approximately 1×10^6 cells/ml (100 μl/well) in black-walled, clear bottom, 96-well plates pre-treated with 10 mg/l poly-D-lysin (75 μl/well for ≧30 min). Plated cells were allowed to proliferate for 24 h before loading with dye.
Fluo-4/AM (1 mg, Molecular Probes) is dissolved in 912 μl DMSO. The Fluo-4/AM stock solution (1 mM) is diluted with culture medium to a final concentration of 2 μM (loading solution).
The culture medium is aspirated from the wells, and 50 μl of the Fluo-4/AM loading solution is added to each well. The cells are incubated at 37° C. for 30 min.
After the loading period, the loading solution is aspirated and the cells are washed twice with 100 μl modified Assay Buffer (145 mM NaCl, 5 mM KCl, 5 mM CaCl2, 1 mM MgCl2, 10 mM HEPES, pH 7.4) to remove extracellular dye. Following the second wash, 100 μl modified Assay Buffer is added to each well and the fluorescence is measured in FLIPR™ or FlexStation™ (Molecular Devices, USA), or any other suitable equipment known to the skilled in the art.
Temperature: Room temperature (20-22° C.)
First addition: 50 μl test solution at a rate of 30 μl/sec and a starting height of 100 μl.
Second addition: 50 μl MES solution (20 mM, 5 mM final concentration) at a rate of 35 μl/sec and a starting height of 150 μl.
Reading intervals: pre-incubation—10 sec×7 and 3 sec×3 antagonist phase—3 sec×17 and 10 sec×12
Addition plates (compound test plate and MES plate) are placed on the right and left positions in the FLIPR tray, respectively. Cell plates are placed in the middle position and the ASIC1a program is effectuated. FLIPR will then take the appropriate measurements in accordance with the interval settings above. Fluorescence obtained after stimulation is corrected for the mean basal fluorescence (in modified Assay Buffer).
The MES-induced peak calcium response, in the presence of test substance, is expressed relatively to the MES response alone. Test substances that block the MES-induced calcium response are re-tested in triplicates. Confirmed hits are picked for further characterization by performing full dose-response curves to determine potency of each hit compound as represented by the IC50 values (i.e., the concentration of the test substance which inhibits 50% of the MES-induced calcium response; see, for example, FIGS. 1A, 1B and 1C, and FIGS. 13A and 13B).

hASIC1a [2] = target: T1, hASIC1a; test: Whole-cell voltage clamp of pH-evoked response of human ASIC1a stably transfected in CHO cells; type: cell-based; design: expressed in transfected cells; details: for effect on proton-gated currents from CHO cells expressing hASIC1a: 1 μM, voltage clamp
Method: FIG. 3 illustrates the inhibitory effect of Compound A on acid-evoked activation of human ASIC1a stably transfected in CHO cells. […] In this example, the size of the pH-evoked response was determined by measuring the area under the curve of the response (total charge transfer) and normalized to the control response. FIG. 3B depicts an example of an hASIC1a current (whole cell voltage clamp, −60 mV) evoked by a pH 6.8-buffered solution (from pH 7.4) in the presence or absence of Compound A (3 μM).
These endogenous proton-activated inward currents were recorded in the presence and absence of Compound J (1 μM) or Compound K (1 μM) using the whole cell configuration of the patch clamp method (voltage clamp mode).
All experiments are performed at room temperature (20-25° C.) in voltage clamp using conventional whole cell patch clamp methods (Neher, E., et al. (1978) Pfluegers Arch 375:219-228).
Coverslips with the cells are transferred to a 15 μl experimental chamber mounted on the stage of an inverted microscope (IMT-2, Olympus) supplied with Nomarski optics. Cells are continuously superfused with extracellular saline at a rate of 2.5 ml/min. After giga-seal formation, the whole cell configuration is attained by suction. The cells are held at a holding voltage of −60 mV and at the start of each experiment the current is continuously measured for 45 s to ensure a stable baseline. Solutions of low pH (<7) are delivered to the chamber through a custom-made gravity-driven flowpipe, the tip of which is placed approximately 50 μm from the cell. Application is triggered when the tubing connected to the flowpipe is compressed by a valve controlled by the Pulse-software. Initially, low pH (in general, pH 6.5) is applied for 5 s every 60 s. The sample interval during application is 5501s. After stable responses are obtained, the extracellular saline as well as the low-pH solution are switched to solutions containing the compound to be tested. The compound is present until responses of a repeatable amplitude are achieved. Current amplitudes are measured at the peak of the responses, and effect of the compounds is calculated as the amplitude at compound equilibrium divided by the amplitude of the current evoked by the pulse just before the compound was included.
The following salt solutions are used: extracellular solution (mM): NaCl (140), KCl (4), CaCl2 (2), MgCl2 (4), HEPES (10, pH 7.4); intracellular solution (mM): KCl (120), KOH (31), MgCl2 (1.785), EGTA (10), HEPES (10, pH 7.2). In general, compounds for testing are dissolved in 50% DMSO at 500 fold the highest concentration used.
Similar findings are shown in FIG. 3 with the human ASIC1a stably transfected in CHO cells. FIG. 3A compares the dose-response relationship between Compound A and amiloride [determined by measuring the area under the curve of the response (total charge transfer) and normalized to the control response]. […] FIGS. 14A and 14B show similar results for Compounds J and K.

formalin-induced pain = test: Formalin test, model of acute tonic pain; type: in vivo, rat; details: Automated Nociception Analyser, n=6-8
Method: Male Sprague-Dawley rats are housed together in groups of three animals under standard conditions with unrestricted access to food and water. All experiments are conducted according to the ethical guidelines for investigations of experimental pain in conscious animals (Zimmerman, 1983)
Assessment of formalin-induced flinching behavior in normal, uninjured rats (body weight 150-180 g) was made with the use of an Automated Nociception Analyser (University of California, San Diego, USA). Briefly, this involved placing a small C-shaped metal band (10 mm wide×27 mm long) on the hindpaw of the rat to be tested. The rats (four rats were included in each testing session) were then placed in a cylindrical plexiglass observation chamber (diameter 30.5 cm and height 15 cm) for 20 min for adaptation purposes prior to being administered drug or vehicle according to the experimental paradigm being followed. After adaptation, individual rats were then gently restrained and formalin (5% in saline, 50 μl, s.c.) was injected into the plantar surface of the hindpaw using a 27G needle. Rats were then returned to their separate observation chambers, each of which were in turn situated upon an enclosed detection device consisting of two electromagnetic coils designed to produce an electromagnetic field in which movement of the metal band could be detected. The analogue signal was then digitised and a software algorithm (LabView) applied to enable discrimination of flinching behaviour from other paw movements. A sampling interval of 1 min was used and on the basis of the resulting response patterns 5 phases of nociceptive behaviour were identified and scored: first phase (P1; 0-5 min), interphase (Int; 6-15 min), second phase (P2; […]), phase 2A (P2A; 16-40 min) and phase 2B (P2B; 41-60 min).
Nociceptive behavior was also determined manually every 5 min by measuring the amount of time spent in each of four behavioral categories: 0, treatment of the injected hindpaw is indistinguishable from that of the contralateral paw; 1, the injected paw has little or no weight placed on it; 2, the injected paw is elevated and is not in contact with any surface; 3, the injected paw is licked, bitten, or shaken. A weighted nociceptive score, ranging from 0 to 3 was calculated by multiplying the time spent in each category by the category weight, summing these products, and dividing by the total time for each 5 min block of time. (Coderre et al., Pain 1993; 54: 43). On the basis of the resulting response patterns, […] of nociceptive behavior were identified and scored: first phase (P1; 0-5 min), interphase (Int; 6-15 min), second phase (P2; […]), phase 2A (P2A; 16-40 min) and phase 2B (P2B; 41-60 min). […]

Structure (SMILES)	inhibitory effect on acid-induced hASIC1a activity (dose-response curve) (hASIC1a [1])	pIC50 (hASIC1a [1])	also measured
CCN1CCc2c(-c3cc(C)cc(C)c3)cc3c(c2C1)NC(=O)/C3=N/O [Compound E, 5-(3,5-dimethylphenyl)-6,7,8,9-tetrahydro-3-(hydroxyimino)-8-ethyl-1H-pyrrolo[3,2-h]isoquinoline-2(3H)-one]	dose-dependently inhibit	–	–
CCN1CCc2c(-c3cc(C)ccc3C)cc3c(c2C1)NC(=O)/C3=N/O [Compound F, 5-(2,5-dimethylphenyl)-6,7,8,9-tetrahydro-3-(hydroxyimino)-8-ethyl-1H-pyrrolo[3,2-h]isoquinoline-2(3H)-one]	dose-dependently inhibit	–	–
CCN1CCc2c(-c3cc(F)ccc3OC)cc3c(c2C1)NC(=O)/C3=N/O [Compound B, 5-(5-fluoro-2-methoxyphenyl)-6,7,8,9-tetrahydro-3-(hydroxyimino)-8-ethyl-1H-pyrrolo[3,2-h]isoquinoline-2(3H)-one]	–	7.52 to 7.70	pain intensity as evaluated by the flinching behavior (formalin-induced pain): dose-dependent reduction of the pain intensity
N=C(N)NC(=O)c1nc(Cl)c(N)nc1N [amiloride, reference compound]	–	–	effect on size of human ASIC1a pH-evoked response (area under the curve, total charge transfer, normalized to control) (hASIC1a [2]; CHO cells, -60 mV, pH 6.8 from pH 7.4): reduce the human ASIC1a pH-evoked response in a dose-dependent manner
CCN1CCc2c(-c3cc(Cl)ccc3OC)cc3c(c2C1)NC(=O)/C3=N/O [Compound G, 5-(5-chloro-2-methoxyphenyl)-6,7,8,9-tetrahydro-3-(hydroxyimino)-8-ethyl-1H-pyrrolo[3,2-h]isoquinoline-2(3H)-one]	dose-dependently inhibit	–	–
Cc1cc(C)cc(-c2cc3c(c4c2CCN(C)C4)NC(=O)/C3=N/O)c1 [Compound D, 5-(3,5-dimethylphenyl)-6,7,8,9-tetrahydro-3-(hydroxyimino)-8-methyl-1H-pyrrolo[3,2-h]isoquinoline-2(3H)-one]	–	6.46 to 6.60	–

Continued, in another order:

inhibitory effect on acid-induced hASIC1a activity (dose-response curve) (hASIC1a [1])	pIC50 (hASIC1a [1])	Structure (SMILES)	also measured
–	6.15 to 7.00	CCN1CCc2c(-c3ccccc3OC)cc3c(c2C1)NC(=O)/C3=N/O [Compound J, 8-ethyl-5-(2-methoxy-phenyl)-6,7,8,9-tetrahydro-1H-pyrrolo[3,2-h]isoquinoline-2,3-dione 3-oxime]	effect on proton-gated currents from CHO cells expressing hASIC1a (hASIC1a [2]): inhibitory effects
–	6.52 to 6.70	COc1ccc(Cl)cc1-c1cc2c(c3c1CCN(C)C3)NC(=O)/C2=N/O [Compound C, 5-(5-chloro-2-methoxyphenyl)-6,7,8,9-tetrahydro-3-(hydroxyimino)-8-methyl-1H-pyrrolo[3,2-h]isoquinoline-2(3H)-one]	–
–	5.77 to 6.52	CCOc1ccccc1-c1cc2c(c3c1CCN(CC)C3)NC(=O)/C2=N/O [Compound K, 5-(2-ethoxy-phenyl)-8-ethyl-6,7,8,9-tetrahydro-1H-pyrrolo[3,2-h]isoquinoline-2,3-dione 3-oxime]	effect on proton-gated currents from CHO cells expressing hASIC1a (hASIC1a [2]): inhibitory effects
